Patent publication US20240287138A1, “CYCLIC PEPTIDES FOR INHIBITING TNF RECEPTOR 1 ACTIVITY” (Merck Sharp & Dohme LLC, priority 2023, published 2024)
pIC50, pKd: −log10 of the molar value. Read-outs that look alike come from different tables or passages of the source. Numbered stars: 1 amine (or outer) side, 2 acyl side, 3 side chain; on linkers, the order of the positions; unused ones are H or OH. Bridge positions count the residues as written; N and C are the ends. Square brackets hold non-standard residues; d marks the D form. Peptide text beside a SMILES is read from it. * marks the point of attachment. Trp(βS-Me,7-OMe) = COc1cccc2c([C@H](C)[C@H](N)C(=O)O)c[nH]c12; dPro(trans-4-NMe3+) = C[N+](C)(C)[C@@H]1CN[C@@H](C(=O)O)C1; Phe(4-SO2NH2) = N[C@@H](Cc1ccc(S(N)(=O)=O)cc1)C(=O)O; Trp(7-CN) = N#Cc1cccc2c(C[C@H](N)C(=O)O)c[nH]c12; Trp(7-Cl) = N[C@@H](Cc1c[nH]c2c(Cl)cccc12)C(=O)O; Phe(4-CONH2) = NC(=O)c1ccc(C[C@H](N)C(=O)O)cc1; Phe(4-COOH) = N[C@@H](Cc1ccc(C(=O)O)cc1)C(=O)O; 4Pal(3S-Me) = C[C@@H](c1ccncc1)[C@H](N)C(=O)O; Trp(7-aza) = N[C@@H](Cc1c[nH]c2ncccc12)C(=O)O; Phe(4-CH2NH2) = NCc1ccc(C[C@H](N)C(=O)O)cc1; dPro(trans-4-F) = O=C(O)[C@H]1C[C@H](F)CN1; Pip(5R-OH) = O=C(O)[C@@H]1CC[C@@H](O)CN1; αMeW = C[C@](N)(Cc1c[nH]c2ccccc12)C(=O)O; X1 = O=C([C@@H]1CC[C@H](N[*:1])C1)[*:2]; X35 = CC(C)(N)[C@H](N[*:1])C(=O)[*:2]; Pip(4-aza) = O=C(O)[C@@H]1CNCCN1; 4Pal = N[C@@H](Cc1ccncc1)C(=O)O; NMeE = CN[C@@H](CCC(=O)O)C(=O)O; X36 = C[C@@H](C(=O)[*:1])[*:2]; αMeS = C[C@](N)(CO)C(=O)O; Carboxymethyl = O=C(O)C*; Nle = CCCC[C@H](N)C(=O)O; Dab = NCC[C@H](N)C(=O)O; Sar = CNCC(=O)O

Columns and labels:
[1] = molecular target: T1, human soluble TNFR1 (sTNFR1) (Homo sapiens, UniProt P19438); assay: Human sTNFR1-peptide displacement assay (LanthaScreen Eu TR-FRET binding assay)
T1 construct: made in house; host or cells: Sf21 (baculovirus)
T1 sequence (P19438 with tags, fused parts or gaps): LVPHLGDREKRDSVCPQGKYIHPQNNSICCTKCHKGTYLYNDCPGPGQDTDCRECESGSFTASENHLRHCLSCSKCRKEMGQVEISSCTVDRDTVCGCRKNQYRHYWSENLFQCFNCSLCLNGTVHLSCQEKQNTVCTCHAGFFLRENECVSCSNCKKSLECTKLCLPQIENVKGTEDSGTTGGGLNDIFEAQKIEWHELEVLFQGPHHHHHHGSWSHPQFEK
Method in brief: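 Readout is the 665/615 nm TR-FRET ratio (Eu anti-His donor, streptavidin-Alexa647 acceptor), normalized to DMSO and saturating displacer, fit by Morrison-based five-parameter logistic for Kd^app. His-tagged sTNFR1 (1-211) prebound to 100 nM biotinylated peptide SEQ ID NO.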

[2] = molecular target: T2, TNFα-induced NF-κB signal transduction pathway (TNFR1 signaling) in THP-1 cells (Homo sapiens, UniProt P19438); assay: THP-1 Lucia NF-κB reporter cell assay, inhibition of TNFα-induced NF-κB signaling; assay type: cell-based; conditions: THP-1 NF-κB Lucia reporter cells, 10 ng/mL TNFα, 16-18 h, secreted luciferase; read-out: THP-1 IC50
T2 sequence (P19438 30-455): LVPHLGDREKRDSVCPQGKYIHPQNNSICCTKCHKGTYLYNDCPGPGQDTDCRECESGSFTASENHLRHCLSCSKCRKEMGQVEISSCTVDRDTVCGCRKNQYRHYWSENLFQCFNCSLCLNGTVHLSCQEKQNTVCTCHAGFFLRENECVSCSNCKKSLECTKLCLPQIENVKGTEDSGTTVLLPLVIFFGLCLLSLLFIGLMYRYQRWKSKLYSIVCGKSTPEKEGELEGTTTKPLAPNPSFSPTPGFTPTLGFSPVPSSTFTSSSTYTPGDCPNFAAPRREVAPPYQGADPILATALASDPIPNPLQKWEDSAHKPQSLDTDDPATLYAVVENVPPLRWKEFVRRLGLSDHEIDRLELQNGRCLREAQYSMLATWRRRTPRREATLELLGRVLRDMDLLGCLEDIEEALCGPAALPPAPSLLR
Method in brief: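 Read-out: secreted Lucia luciferase luminescence (QUANTI-Luc) from supernatant after 16-18 h, 37 °C, 10 ng/mL rhTNFα. Peptide pretreatment 1 h at 37 °C; 20,000 cells/well, selection antibiotics omitted. IC50 via 4-parameter logistic model against min/max controls.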

| SMILES | pIC50 [1] | pIC50 [2] | pKd ([1]; displacement of biotinylated peptide SEQ ID NO. 1 from sTNFR1, 20 point titration, 5-parameter fit based on Morrison equation (tight binding), read-out: TR-FRET Kd^app) | pKd [1] |
| --- | --- | --- | --- | --- |
| CCCC[C@@H]1NC(=O)CSC[C@@H](C(N)=O)NC(=O)[C@H]([C@@H](C)c2c[nH]c3c(OC)cccc23)NC(=O)CN(C)C(=O)[C@H](Cc2ccc(O)cc2)NC(=O)[C@H](Cc2ccc(C(=O)O)cc2)NC(=O)[C@](C)(CO)NC(=O)[C@H](Cc2c[nH]c3c(Cl)cccc23)NC(=O)[C@H]([C@@H](C)c2ccncc2)NC(=O)[C@H](CC(N)=O)NC(=O)[C@H](CCC(=O)O)N(C)C(=O)[C@H](Cc2c[nH]c3ccccc23)NC(=O)[C@H](CO)NC(=O)[C@H](Cc2ccc(CN)cc2)NC1=O [SEQ ID NO. 252] ({CH2CO}-[Nle][Phe(4-CH2NH2)]SW[NMeE]N[4Pal(3S-Me)][Trp(7-Cl)][αMeS][Phe(4-COOH)]Y[Sar][Trp(βS-Me,7-OMe)]C-NH2; thioether N-14) | 8.62 | 7.63 | – | – |
| CCCC[C@@H]1NC(=O)[C@@H]2CC[C@@H](C2)NC(=O)[C@H]([C@@H](C)c2c[nH]c3c(OC)cccc23)NC(=O)CN(C)C(=O)[C@H](Cc2ccc(OCC(=O)O)cc2)NC(=O)[C@H](Cc2ccc(S(N)(=O)=O)cc2)NC(=O)[C@](C)(CO)NC(=O)[C@H](Cc2c[nH]c3c(C#N)cccc23)NC(=O)[C@H](Cc2ccc(OCC(=O)O)cc2)NC(=O)[C@H](CC(N)=O)NC(=O)[C@H]2C[C@H]([N+](C)(C)C)CN2C(=O)[C@H](Cc2c[nH]c3ncccc23)NC(=O)[C@@H]2CC[C@@H](O)CN2C(=O)[C@H](Cc2ccncc2)NC1=O [SEQ ID NO. 257] (cyclo([4Pal][Pip(5R-OH)][Trp(7-aza)][dPro(trans-4-NMe3+)]NY(Carboxymethyl)[Trp(7-CN)][αMeS][Phe(4-SO2NH2)]Y(Carboxymethyl)[Sar][Trp(βS-Me,7-OMe)][X1][Nle])) | – | 9.40 | 10.10 | – |
| CCCC[C@@H]1NC(=O)[C@H](C)SC[C@@H](C(N)=O)NC(=O)[C@H]([C@@H](C)c2c[nH]c3c(OC)cccc23)NC(=O)CN(C)C(=O)[C@H](Cc2ccc(O)cc2)NC(=O)[C@H](Cc2ccc(C(N)=O)cc2)NC(=O)[C@](C)(CO)NC(=O)[C@H](Cc2c[nH]c3c(Cl)cccc23)NC(=O)[C@H](Cc2ccncc2)NC(=O)[C@H](CC(N)=O)NC(=O)[C@H](CCC(=O)O)N(C)C(=O)[C@H](Cc2c[nH]c3ncccc23)NC(=O)[C@H](C(C)(C)N)NC(=O)[C@H](Cc2ccncc2)NC1=O [SEQ ID NO. 273] ([Nle][4Pal][X35][Trp(7-aza)][NMeE]N[4Pal][Trp(7-Cl)][αMeS][Phe(4-CONH2)]Y[Sar][Trp(βS-Me,7-OMe)]C-NH2; linker N-14 via X36) | 9.22 | 8.39 | – | 9.48 |
| CCCC[C@@H]1NC(=O)CSC[C@@H](C(N)=O)NC(=O)[C@](C)(Cc2c[nH]c3ccccc23)NC(=O)CN(C)C(=O)[C@H](Cc2ccc(O)cc2)NC(=O)[C@H](Cc2ccc(C(=O)O)cc2)NC(=O)[C@](C)(CO)NC(=O)[C@H](Cc2c[nH]c3c(Cl)cccc23)NC(=O)[C@H](Cc2ccncc2)NC(=O)[C@H](CC(N)=O)NC(=O)[C@H](CCC(=O)O)N(C)C(=O)[C@H](Cc2c[nH]c3ncccc23)NC(=O)[C@H](CCN)NC(=O)[C@H](Cc2ccncc2)NC1=O [SEQ ID NO. 277] ({CH2CO}-[Nle][4Pal][Dab][Trp(7-aza)][NMeE]N[4Pal][Trp(7-Cl)][αMeS][Phe(4-COOH)]Y[Sar][αMeW]C-NH2; thioether N-14) | 8.95 | 8.52 | – | – |
| CCCC[C@@H]1NC(=O)CSC[C@@H](C(N)=O)NC(=O)[C@H]([C@@H](C)c2c[nH]c3c(OC)cccc23)NC(=O)CN(C)C(=O)[C@H](Cc2ccc(O)cc2)NC(=O)[C@H](Cc2ccc(C(=O)O)cc2)NC(=O)[C@](C)(CO)NC(=O)[C@H](Cc2c[nH]c3c(Cl)cccc23)NC(=O)[C@H](Cc2ccncc2)NC(=O)[C@H](CC(N)=O)NC(=O)[C@H]2C[C@H](F)CN2C(=O)[C@H](Cc2c[nH]c3ccccc23)NC(=O)[C@@H]2CNCCN2C(=O)[C@H](Cc2ccncc2)NC1=O [SEQ ID NO. 279] ({CH2CO}-[Nle][4Pal][Pip(4-aza)]W[dPro(trans-4-F)]N[4Pal][Trp(7-Cl)][αMeS][Phe(4-COOH)]Y[Sar][Trp(βS-Me,7-OMe)]C-NH2; thioether N-14) | – | 8.85 | – | 9.42 |
